Patent publication US7745570B2, “PH dependent adhesive peptides” (Kansas State University Research Foundation, priority 2005, dated 2010)
Entries after “also recorded” stand apart in the source; their conditions may differ. Where no end group is shown, it is not given here.

Key:
[1] = MALDI mass spectrometry of dried/hot-pressed peptide for hydrolysis of peptide bonds; format: physicochemical; details: 4% peptide pH 12, dried at RT or 130° C. without pressure or 130° C. with pressure
Experimental: The same K3h9K3 samples used in the FTIR studies were analyzed by matrix assisted, laser desorption mass spectrometry. At elevated pH and temperature, the spontaneous hydrolysis of peptide bonds could occur. Dried samples taken from glass slides treated with 4% peptide solutions at pH 12 and dried at either room temperature or 130° C. without pressure as well as dried at 130° C. with pressure were dissolved in acetonitrile containing matrix and transferred to mass spectral target slides.

[2] = Circular dichroism at 25° C. to 75° C. (conformational stability); format: physicochemical; details: 250 μM, pH 12, 25° C. to 75° C.
Experimental: Circular Dichroism Spectra: The data set out in FIG. 4 were collected according to the following protocol. The circular dichroic spectra were recorded on a J-720 (Jasco, Japan) spectropolarimeter with a Neslab RTE-111M circulator using a 1.0 mm quartz cuvette from 260 to 180 nm. The spectra are an average of five scans recorded at a rate of 20 nm/min with a 0.2 nm step interval. For circular dichroism measurements, 1 mL samples of synthetic peptide were prepared with a different pH buffer solution. The following buffers were used: 60 mM glycine, 60 mM NaCl, 40 mM HCl, pH 2.2; 50 mM glycine, 50 mM NaCl, 0.2 mM NaOH, pH 6.8; and 45 mM glycine, 45 mM NaCl, 55 mM NaOH, pH 12. The final peptide concentration was 250 μM. All spectra were corrected by subtracting the baseline of the buffer solution recorded under the same condition. Unless otherwise noted, spectra were recorded at room temperature. The CD absorbances were expressed as the mean residue ellipticity in units of degrees cm^2 dmol^−1. Temperatures were controlled with a refrigerated circulator bath (Neslab RTE-111M). Temperatures were controlled between 25° C. to 75° C.

[3] = Viscosity of peptide solutions, Brookfield viscometer; format: physicochemical; details: peptide 4%, 20 rpm, RT
Experimental: Viscosity: Viscosity of peptides at different pH was measured in a Brookfield RVDV-III 5^+ viscometer (Middleboro, Mass.). All the measurements were taken at 2.5 minute intervals using 8 mL samples at ambient temperature with a spindle SC4-21 operating at 20 rpm. Five data points were averaged for each reported value.

[4] = modified Wimley-White scale, side chain values; cited from earlier work
[5] = Wimley and White Hydrophobicity Scale; cited from earlier work
[6] = Solubility and ionisation of peptides at the test pH values; format: physicochemical; details: for Solubility: aqueous peptide solutions at pH 2.2, 6.8, 12.0

With “KKK-FLIVIGSII-KKK (KKKFLIVIGSIIKKK) [Peptide K3h9K3]” the “Peptide integrity (hydrolysis of peptide bonds)” value [1] was “intact monomer however no detectable amounts of fragmented peptide”, the “Effect of temperature on CD spectra (conformation)” value [2] was “did not alter the CD spectra” and the Viscosity ([3]; pH 2.2) was 20 mPa · s. For the same compound, the Viscosity ([3]; pH 6.8) was 20 mPa · s and the Viscosity ([3]; pH 12) was 290 mPa · s.
For C[C@H](N)C(=O)O [Ala, alanine], the ΔGresidue value [4] is given as -0.5 kcal/mol and the “ΔG for transfer from water to organic phase” value (shortened to “ΔG for transfer from water”) [5] is given as 0.50 kcal/mol.
In the case of HHHFLIVIGSIIHHH [Peptide H3h9H3], the Solubility [6] is reported as “insoluble at all pH values”.
In the case of NCC(=O)O [Gly], the “ΔG for transfer from water” value [5] is given as 1.15 kcal/mol.
For CC(C)[C@H](N)C(=O)O [Val, valine], the ΔGresidue value [4] is given as 0.46 kcal/mol and the “ΔG for transfer from water” value [5] is given as -0.46 kcal/mol.
For N[C@@H](Cc1ccccc1)C(=O)O [Phe], the “ΔG for transfer from water” value [5] is given as -1.71 kcal/mol.
In the case of CSCC[C@H](N)C(=O)O [Met], the “ΔG for transfer from water” value [5] is listed as -0.67 kcal/mol.
“EEE-FLIVIGSII-KKK (EEEFLIVIGSIIKKK) [Peptide E3h9K3]” showed a Viscosity ([3]; pH 2.2) of 190 mPa · s, a Viscosity ([3]; pH 6.8) of 245 mPa · s and a Viscosity ([3]; pH 12) of 20 mPa · s.
With “KKK-FLIVIGSII-EEE (KKKFLIVIGSIIEEE) [Peptide K3h9E3]” the Viscosity ([3]; pH 2.2) was 210 mPa · s, the Viscosity ([3]; pH 6.8) was 305 mPa · s and the Viscosity ([3]; pH 12) was 20 mPa · s.
In the case of N[C@@H](CO)C(=O)O [Ser], the “ΔG for transfer from water” value [5] is given as 0.46 kcal/mol.
With RRRFLIVIGSIIRRR [Peptide R3h9R3] the Ionisation state ([6]; pH 12.0) was “not fully ionized”.
In the case of “EEEFLIVIGSIIEEE-OH [Peptide E3h9E3, EEE-FLIVIGSII-EEE]”, the Solubility [6] is reported as “insoluble below and somewhat above its pI; also recorded: insoluble at the two lower pH values” and the Viscosity ([3]; pH 12) is reported as 20 mPa · s.
